Assay results published in article PMC4861903, “Synthesis of a highly water-soluble acacetin prodrug for treating experimental atrial fibrillation in beagle dogs” (Scientific Reports, 2016).
Converted amounts (≈) assume the structure as drawn. Like-named read-outs stand apart in the source and are kept apart here.

Columns and labels:
[1] = target: T1, hKv1.5 current (IKur, KCN5A) (Homo sapiens, UniProt P22460); assay: Whole-cell patch clamp of hKv1.5 current in HEK 293 cells; assay type: cell-based; settings: 10 μM, at +50 mV, current at end of the voltage step, n = 5
T1 construct: expressed in transfected cells
T1 sequence (P22460 whole entry): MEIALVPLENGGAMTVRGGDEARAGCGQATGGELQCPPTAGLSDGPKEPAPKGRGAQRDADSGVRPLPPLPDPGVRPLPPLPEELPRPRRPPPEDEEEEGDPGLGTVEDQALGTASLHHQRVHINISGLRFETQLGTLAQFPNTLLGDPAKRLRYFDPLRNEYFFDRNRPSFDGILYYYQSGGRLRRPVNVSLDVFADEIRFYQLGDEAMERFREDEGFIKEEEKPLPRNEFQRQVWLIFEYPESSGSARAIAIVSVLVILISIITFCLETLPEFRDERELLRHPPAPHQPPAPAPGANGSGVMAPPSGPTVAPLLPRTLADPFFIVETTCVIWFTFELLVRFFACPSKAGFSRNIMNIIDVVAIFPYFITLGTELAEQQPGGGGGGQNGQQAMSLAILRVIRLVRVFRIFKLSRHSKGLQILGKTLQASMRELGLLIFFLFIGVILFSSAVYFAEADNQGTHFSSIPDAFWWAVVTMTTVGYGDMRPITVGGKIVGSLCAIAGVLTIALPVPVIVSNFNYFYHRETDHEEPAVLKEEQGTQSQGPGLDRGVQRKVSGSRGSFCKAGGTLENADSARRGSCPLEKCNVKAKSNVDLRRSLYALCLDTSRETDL
Method: (§1) Whole-cell currents of hKv1.5 and hKv4.3 were recorded in established HEK 293 cell lines stably expressing hKv1.5 (KCN5A) and hKv4.3 (KCND3) and IKACh was determined in isolated rat atrial myocytes as described previously[12][31][32] and in Supplemental Materials. […]
(§2) Effects of acacetin prodrug on cardiac potassium currents
(§3) Whole-cell currents of hKv1.5 and hKv4.3 were recorded in established HEK 293 cell lines stably expressing hKv1.5 (KCN5A) and hKv4.3 (KCND3).1, 2 The cells were cultured in Dulbecco’s modified eagle’s medium (DMEM, Invitrogen, Hong Kong) supplemented with 10% fetal bovine serum and 400 µg/mL G418. Cells on a coverslip were transferred to an open cell chamber (0.5 ml) mounted on the stage of an inverted microscope and superfused with Tyrode’s solution at 2 mL/min. The whole cell patch-clamp technique was used as described previously.1, 2 The whole-cell membrane currents were measured using an EPC-10 amplifier and Pulse software (Heka Elektronik, Lambrecht, Germany). Borosilicate glass electrodes (1.2-mm OD) were pulled with a Brown/Flaming puller (model P-97, Sutter Instrument, Nato, CA) and had resistances of 1.5~2.5 MΩ when filled with the pipette solution. A 3-M KCl agar bridge was used as the reference electrode. The tip potential was zeroed before the patch pipette contacted the cell. […]

[2] = Aqueous solubility by HPLC in H2O, 5% glucose and 0.9% NaCl; assay type: physicochemical
[3] = target: T2, hERG channels (Homo sapiens, UniProt Q12809); settings: 30 μM; cited from earlier work
T2 construct: expressed in transfected cells; host or cells: HEK 293
T2 sequence (Q12809 whole entry): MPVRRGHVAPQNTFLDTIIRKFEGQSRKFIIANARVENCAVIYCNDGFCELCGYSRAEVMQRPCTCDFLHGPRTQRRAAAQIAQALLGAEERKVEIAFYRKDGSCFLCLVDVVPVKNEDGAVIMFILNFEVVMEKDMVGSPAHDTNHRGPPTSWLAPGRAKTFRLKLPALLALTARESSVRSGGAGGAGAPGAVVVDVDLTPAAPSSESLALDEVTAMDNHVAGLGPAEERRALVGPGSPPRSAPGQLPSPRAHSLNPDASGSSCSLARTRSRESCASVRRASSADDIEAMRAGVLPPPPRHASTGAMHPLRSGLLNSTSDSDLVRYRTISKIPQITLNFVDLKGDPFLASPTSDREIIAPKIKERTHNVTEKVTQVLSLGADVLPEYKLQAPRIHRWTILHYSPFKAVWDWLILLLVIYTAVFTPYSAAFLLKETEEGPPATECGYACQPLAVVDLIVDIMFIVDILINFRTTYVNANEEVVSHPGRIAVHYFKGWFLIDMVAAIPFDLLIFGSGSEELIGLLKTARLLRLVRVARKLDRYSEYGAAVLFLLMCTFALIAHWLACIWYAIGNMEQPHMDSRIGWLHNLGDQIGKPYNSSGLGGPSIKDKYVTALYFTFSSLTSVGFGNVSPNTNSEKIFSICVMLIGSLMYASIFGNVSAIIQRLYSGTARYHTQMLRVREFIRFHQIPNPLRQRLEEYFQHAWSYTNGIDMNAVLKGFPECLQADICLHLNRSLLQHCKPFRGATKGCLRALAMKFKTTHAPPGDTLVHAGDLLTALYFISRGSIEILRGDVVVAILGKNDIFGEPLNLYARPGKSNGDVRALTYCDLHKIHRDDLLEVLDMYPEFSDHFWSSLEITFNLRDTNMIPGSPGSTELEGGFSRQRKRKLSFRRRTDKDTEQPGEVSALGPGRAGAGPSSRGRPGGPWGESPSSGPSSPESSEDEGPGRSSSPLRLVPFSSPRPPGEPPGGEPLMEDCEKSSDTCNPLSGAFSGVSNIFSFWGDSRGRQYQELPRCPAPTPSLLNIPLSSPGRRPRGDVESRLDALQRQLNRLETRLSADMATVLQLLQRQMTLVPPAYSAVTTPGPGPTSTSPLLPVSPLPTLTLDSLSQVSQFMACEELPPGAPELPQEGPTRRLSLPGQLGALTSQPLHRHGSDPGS

[4] = target: T3, hKv4.3 current (Ito, KCND3) (Homo sapiens, UniProt Q9UK17); assay: Whole-cell patch clamp of hKv4.3 current in HEK 293 cells; assay type: cell-based; settings: 10 μM, at +50 mV, current peak, n = 5
T3 construct: expressed in transfected cells
T3 sequence (Q9UK17 1-655): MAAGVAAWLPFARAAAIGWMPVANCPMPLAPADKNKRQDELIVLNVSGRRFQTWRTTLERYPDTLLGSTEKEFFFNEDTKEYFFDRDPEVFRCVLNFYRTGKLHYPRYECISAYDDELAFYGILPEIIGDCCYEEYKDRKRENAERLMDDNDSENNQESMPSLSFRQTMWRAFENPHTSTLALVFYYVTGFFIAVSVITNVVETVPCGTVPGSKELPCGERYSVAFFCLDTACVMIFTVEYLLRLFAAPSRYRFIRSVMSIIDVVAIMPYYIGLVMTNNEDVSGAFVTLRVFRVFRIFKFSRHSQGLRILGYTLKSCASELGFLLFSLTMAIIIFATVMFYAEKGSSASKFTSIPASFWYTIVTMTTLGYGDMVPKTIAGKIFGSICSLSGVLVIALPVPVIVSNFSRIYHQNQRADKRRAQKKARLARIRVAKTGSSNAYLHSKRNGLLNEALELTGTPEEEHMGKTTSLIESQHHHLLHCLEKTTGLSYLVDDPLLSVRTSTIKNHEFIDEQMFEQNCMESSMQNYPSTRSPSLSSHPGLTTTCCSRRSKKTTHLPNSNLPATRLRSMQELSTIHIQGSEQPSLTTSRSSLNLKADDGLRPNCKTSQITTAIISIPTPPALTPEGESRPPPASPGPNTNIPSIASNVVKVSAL
Method: as §1, §2, §3

[5] = target: T4, IKACh (acetylcholine-activated K+ current) (Rattus norvegicus, UniProt P48548+P63251); assay: Whole-cell IKACh elicited by 5 μM carbachol in rat atrial myocytes; assay type: cell-based; settings: 10 μM, at −100 mV, carbachol sensitive current, n = 5
T4 construct: endogenous in cells; host or cells: atrial myocytes dissociated from male Sprague-Dawley rats
T4 sequence (P63251 1-501): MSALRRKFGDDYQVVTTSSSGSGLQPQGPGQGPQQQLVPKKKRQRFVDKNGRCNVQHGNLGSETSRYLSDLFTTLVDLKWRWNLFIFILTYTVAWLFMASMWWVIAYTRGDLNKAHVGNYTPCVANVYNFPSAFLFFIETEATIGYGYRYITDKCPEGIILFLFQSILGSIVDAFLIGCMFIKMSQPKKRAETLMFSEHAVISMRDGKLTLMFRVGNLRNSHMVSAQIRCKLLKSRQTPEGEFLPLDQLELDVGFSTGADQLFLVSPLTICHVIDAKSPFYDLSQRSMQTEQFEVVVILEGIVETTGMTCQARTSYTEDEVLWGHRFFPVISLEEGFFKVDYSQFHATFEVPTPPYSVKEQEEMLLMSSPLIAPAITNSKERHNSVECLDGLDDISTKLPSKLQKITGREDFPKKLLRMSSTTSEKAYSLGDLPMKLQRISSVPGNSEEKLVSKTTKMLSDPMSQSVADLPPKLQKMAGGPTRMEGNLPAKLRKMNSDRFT
T4 sequence (P48548 1-419): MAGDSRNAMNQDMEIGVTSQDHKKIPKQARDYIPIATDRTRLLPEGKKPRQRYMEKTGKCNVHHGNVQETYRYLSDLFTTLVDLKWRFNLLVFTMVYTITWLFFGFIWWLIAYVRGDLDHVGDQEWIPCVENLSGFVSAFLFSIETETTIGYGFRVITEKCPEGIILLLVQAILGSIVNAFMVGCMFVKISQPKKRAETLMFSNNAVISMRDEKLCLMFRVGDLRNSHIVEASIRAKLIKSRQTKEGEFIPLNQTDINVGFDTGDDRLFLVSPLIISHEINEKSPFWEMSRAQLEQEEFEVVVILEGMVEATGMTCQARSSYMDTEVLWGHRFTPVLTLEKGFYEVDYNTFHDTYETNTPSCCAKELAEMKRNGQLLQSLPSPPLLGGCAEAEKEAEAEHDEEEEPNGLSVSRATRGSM
Method: as §1
Effects of acacetin prodrug on cardiac potassium currents […]
Cells on a coverslip were transferred to an open cell chamber (0.5 ml) mounted on the stage of an inverted microscope and superfused with Tyrode’s solution at 2 mL/min. The whole cell patch-clamp technique was used as described previously.1, 2 The whole-cell membrane currents were measured using an EPC-10 amplifier and Pulse software (Heka Elektronik, Lambrecht, Germany). Borosilicate glass electrodes (1.2-mm OD) were pulled with a Brown/Flaming puller (model P-97, Sutter Instrument, Nato, CA) and had resistances of 1.5~2.5 MΩ when filled with the pipette solution. A 3-M KCl agar bridge was used as the reference electrode. The tip potential was zeroed before the patch pipette contacted the cell. After a giga-Ohm seal was obtained, the cell membrane was ruptured by applying gentle pressure to establish a whole-cell configuration. […] The liquid junction potential (14.7 mV) calculated with the software Clampex was not corrected in the experiment and data […]
Whole-cell current of IKACh was determined in isolated rat atrial myocytes. […]

| SMILES | decrease of hKv1.5 current [1] | solubility [2] | solubility ([2]; 24 °C, saline or isotonic) | solubility ([2]; 24 °C, water) | inhibition of hERG current [3] | decrease of hKv4.3 current [4] | decrease of IK.ACh [5] | solubility ([2]; 24 °C, saline or isotonic, in 0.9% NaCl, room temperature (23–25 °C), n = 3, read-out: maximum solubility) | solubility ([2]; 24 °C, saline or isotonic, in 5% glucose, room temperature (23–25 °C), n = 3, read-out: maximum solubility) | solubility ([2]; 24 °C, water, in H2O, room temperature (23–25 °C), n = 3, read-out: maximum solubility) | increase of aqueous solubility vs acacetin ([2]; in 0.9% NaCl) | increase of aqueous solubility vs acacetin ([2]; in 5% glucose) | increase of aqueous solubility vs acacetin ([2]; in H2O) |
| --- | --- | --- | --- | --- | --- | --- | --- | --- | --- | --- | --- | --- | --- |
| COc1ccc(-c2cc(=O)c3c(O)cc(O)cc3o2)cc1 [acacetin] | 79.7 ± 4.1% | 0.195 ± 0.0135 µg/mL (≈ 0.686 µM) | 0.312 ± 0.0121 µg/mL (≈ 1.1 µM) | 0.0644 ± 0.0109 µg/mL (≈ 0.227 µM) | ~ 50% | 69.3 ± 5.1% | 66.5 ± 3.1% |  |  |  |  |  |  |
| COc1ccc(-c2cc(=O)c3c(O)cc(OP(=O)(O)O)cc3o2)cc1 [phosphate ester of acacetin] |  |  |  |  |  |  |  | 4.3 ± 0.1 µg/mL | 2.7 ± 0.1 µg/mL | 2.5 ± 0.1 µg/mL | 21 folds | 7.6 folds | 37.8 folds |
